This note sets out measurements from ChEMBL document CHEMBL3526057 (Drug Metab Dispos, 2011).

This data set concerns the target Cytochrome P450 2C19 (Homo sapiens, UniProt P33261, W212C). Description: Activity of human recombinant CYP2C19 W212C mutant expressed in Saccharomyces cerevisiae BJ5457 assessed as intrinisic clearance foromeprazole 5'-hydroxylation per pmol protein after 60 mins. Type of data set: ADME. The following applies: recombinant enzyme, 1 h.

On to `COc1ccc2[nH]c([S+]([O-])Cc3ncc(C)c(OC)c3C)nc2c1` (stereo unspecified) [OMEPRAZOLE], for which the CL is 0.18 µL/min.
